From patent publication US11129820B2, “Ferroportin-inhibitor salts” (Vifor (International) AG, priority 2017, dated 2021)
“And” between values parts separate entries of the source, which are not always exact repeats. Equal values may be shown once. Marks after values point to notes of the source that are not given here.

Columns and labels:
Hbb th3/+ mice = assay: Mouse model of β-thalassemia intermedia (Hbb th3/+ mice); assay type: in vivo; conditions: for Decrease in RDW by 20/60 mg/kg compound / Decrease in ^58Fe spleen iron content by 20/60 mg/kg compound / Decrease in blood reticulocyte counts by 20/60 mg/kg compound / Decrease in leukocyte counts by 20/60 mg/kg compound / Decrease in relative spleen weight by 20/60 mg/kg / Decrease in serum erythropoietin by 20/60 mg/kg compound / Increase in blood erythrocyte counts by 20/60 mg/kg compound / Increase in hematocrit by 20/60 mg/kg compound / Prevention of liver ^58Fe loading by 20/60 mg/kg / Decrease in serum iron by 20/60 mg/kg compound / Decreased in ROS in bone marrow erythrocytes: % change to vehicle; for Correction of anemia at day 20-48 by 20/60 mg/kg: hemoglobin difference to vehicle; for Decrease in serum iron by 20/60 mg/kg compound: dosed for 3 h
Procedure: The efficacy of Fpn inhibitors is investigated using a mouse model of transfusion-independent β-thalassemia. Mice with heterozygous deletion of β 1 and β 2 globin genes (called Hbb th3/+ mice) develop transfusion-independent anemia, ineffective erythropoiesis, splenomegaly and secondary iron overload in spleen, liver and kidneys. […] Hbb th3/+ mice are dosed twice daily with either compound at 20 or 60 mg/kg or with methylcellulose (10 ml/kg, Sigma, Cat. 274429) as a vehicle. Between both doses mice have access to drinking water supplemented with 1 mM ^58Fe(II)-sulfate (Vifor Pharma, Batch No. ROR 3096) and 10 mM ascorbic acid (Sigma, Cat. 795437) for 6 h. The concentration of ^58Fe(II)-Sulfate supplied in the drinking water is adjusted to substitute for intake of standard rodent diet with iron content of 250 ppm. Water without ^58Fe(II)-Sulfate and ascorbic acid is provided during the remaining 18 h. Dosing of Fpn inhibitors or vehicle followed by exposure to iron-containing water is repeated for 20 to 46 days in individual experiments.
Additional hematologic parameters are measured in terminal blood using automated blood cell analyzer.
The inefficient erythropoiesis of Hbb th3/+ mice causes excessive proliferation of erythroid precursors in spleen, leading to splenomegaly.
Elevated erythropoietin levels in Hbb th3/+ mice induce overexpression of erythroferrone, an erythroid regulator hormone known to suppress hepcidin (Kautz L. et al, Nat. Genet., 2014). […] Erythroferrone is produced by erythrocyte precursors proliferating massively in spleens of Hbb th3/+ mice as a consequence of extramedullar erythropoiesis.
Increased iron demand due to inefficient erythropoiesis and chronically low hepcidin levels in patients with thalassemia causes organ iron loading and associated morbidities, such as hepatocellular carcinoma and heart failure (Rivella S. Haematologica, 2015). Hbb th3/+ mice absorb excessive amounts of iron as a consequence of inadequately low hepcidin levels relative to the high iron content in liver, spleen and kidney and increased ferroportin expression in duodenum (Gardenghi S., Blood, 2007).
Additionally, reactive oxygen species (ROS) are detected in bone marrow cells using a fluorescent indicator, CM-H2DCFDA (Thermo Fisher Scientific, Cat. C6827).
Data are expressed as difference to the vehicle control group for hemoglobin and as % change to the vehicle control group for all other parameter shown

[1] = test system: beta2-microglobulin deficient (b2m−/−) mice; assay: Correction of hyperferremia in beta2-microglobulin deficient mice; assay type: in vivo, mouse
Procedure: Female and male homozygous b2m−/− mice are supplied from Jackson Laboratories (B6.129P2-B2mtm1Unc/J, Stock Number: 002087) at age of 6 to 7 weeks and fed standard diet (Harlan Provimi Kliba 3436) ad libitum. Age and gender matched WT C57BL/6 mice are supplied by Charles River. To study the acute effects of ferroportin (Fpn) inhibitors in iron overload b2m−/− mice are treated with compounds or the corresponding amount of vehicle at a volume of 10 ml/kg body weight. Fpn inhibitor compounds are formulated in 0.5% methylcellulose/water or 20% cremophor EL/water and dosed p.o. in mice at 50 mg/kg body weight. WT controls received only vehicle. Three hours later, mice are pre-terminally anesthetized in isoflurane chambers and blood is collected by retro-orbital bleeding. Mice are sacrificed by cervical dislocation and spleens, livers and duodena are harvested and used for biomarker analysis. All experiments are performed in compliance with license approved by the responsible veterinarian authorities. Serum is isolated by centrifugation of blood into gel-containing microtainers (BD Biosciences) and serum iron is determined by the MULTIGENT Iron assay (Abbott Diagnostics, Cat. 6K95). Four to nine mice per group are used and one-way ANOVA with Bonferroni's multiple comparison test is applied to analyze the statistical differences between the experimental groups.
Blood is collected 1 (#) or 3 (##) hours after oral administration of the indicated doses of Fpn inhibitors to beta2-microglobulin deficient mice and serum iron concentrations are measured. Relative reduction (%) of serum iron levels are shown, which were calculated by subtracting the average of serum iron values of animals dosed with the Fpn inhibitor from that of vehicle-treated animals. The difference in average serum iron values between vehicle and compound treated groups was then divided by the average of serum iron of the vehicle control group and listed as percentage. Values are listed separately for female (♀) and male (♂) animals, because a marked sex-dependent difference in efficacy was noted. Statistically significant (2-way ANOVA with Bonferroni post test) differences observed between compound-treated and vehicle-treated groups are indicated (*** p<0.001; ** p<0.01, p<0.05).

[2] = test system: beta2-microglobulin deficient (b2m−/−) mice; assay: Prevention of iron overload in beta2-microglobulin deficient mice; assay type: in vivo, mouse; conditions: 14 days
Procedure: In addition, feeding 3 week old b2m−/− mice a diet with low iron content (LID) immediately after weaning prevents liver iron loading by age of 6-7 weeks. The efficacy of the Fpn inhibitors to prevent liver iron accumulation in b2m−/− mice is investigated. Three weeks old b2−/− mice fed LID are dosed with either Fpn inhibitor or vehicle (methylcellulose; 10 ml/kg). Mice have access to drinking water supplemented with 1 mM ^58Fe(II)-sulfate and 10 mM ascorbic acid. Dosing of Fpn inhibitor or vehicle followed by exposure to iron-containing water is repeated for 14 days. Mice are euthanized and the liver and spleen iron contents are analyzed by ICP-OES (all iron isotopes) and liver tissue is also analyzed for ^58Fe concentration (ICP-MS).
Livers and spleens are collected after 14 day treatment (p.o.; b.i.d) of beta2-microglobulin deficient mice with the indicated doses of Fpn inhibitors. Total liver and spleen tissue iron concentrations are measured using ICP-OES and ^58Fe liver concentrations are determined with ICP-MS. Relative changes (%) of tissue iron levels are calculated by normalizing the difference between the averages of tissue iron values of animals dosed with the Fpn inhibitors and those of vehicle-treated animals with the average of vehicle controls.

[3] = 20 mg/kg twice daily for 20-46 days
[4] = 60 mg/kg twice daily for 20-46 days

SMILES: O=C(NCc1ncccc1F)c1cnc(C2CN(CCc3nc4ccccc4[nH]3)C2)o1 [Example Compound No. 2]
- Decrease in RDW by 20/60 mg/kg compound (Hbb th3/+ mice; [3]): 0%
- Decrease in ^58Fe spleen iron content by 20/60 mg/kg compound (Hbb th3/+ mice; [3]): 13%
- Decrease in blood reticulocyte counts by 20/60 mg/kg compound (Hbb th3/+ mice; [3]): 0%
- Decrease in leukocyte counts by 20/60 mg/kg compound (Hbb th3/+ mice; [3]): 29%
- Decrease in relative spleen weight by 20/60 mg/kg (Hbb th3/+ mice; [3]): 16%
- Decrease in serum erythropoietin by 20/60 mg/kg compound (Hbb th3/+ mice; [3]): 4%
- Increase in blood erythrocyte counts by 20/60 mg/kg compound (Hbb th3/+ mice; [3]): 0%
- Increase in hematocrit by 20/60 mg/kg compound (Hbb th3/+ mice; [3]): 0%
- Prevention of liver ^58Fe loading by 20/60 mg/kg (Hbb th3/+ mice; [3]): 14%
- Correction of anemia at day 20-48 by 20/60 mg/kg (Hbb th3/+ mice; 20 mg/kg twice daily): 3 g/L
- Decrease in serum iron by 20/60 mg/kg compound (Hbb th3/+ mice; 20 mg/kg): 50%
- Decrease in RDW by 20/60 mg/kg compound (Hbb th3/+ mice; [4]): 15%
- Decrease in ^58Fe spleen iron content by 20/60 mg/kg compound (Hbb th3/+ mice; [4]): 40%
- Decrease in blood reticulocyte counts by 20/60 mg/kg compound (Hbb th3/+ mice; [4]): 11%
- Decrease in leukocyte counts by 20/60 mg/kg compound (Hbb th3/+ mice; [4]): 55%
- Decrease in relative spleen weight by 20/60 mg/kg (Hbb th3/+ mice; [4]): 47%
- Decrease in serum erythropoietin by 20/60 mg/kg compound (Hbb th3/+ mice; [4]): 27%
- Increase in blood erythrocyte counts by 20/60 mg/kg compound (Hbb th3/+ mice; [4]): 33%
- Increase in hematocrit by 20/60 mg/kg compound (Hbb th3/+ mice; [4]): 15%
- Prevention of liver ^58Fe loading by 20/60 mg/kg (Hbb th3/+ mice; [4]): 47%
- Correction of anemia at day 20-48 by 20/60 mg/kg (Hbb th3/+ mice; 60 mg/kg twice daily): 11 g/L
- Decrease in serum iron by 20/60 mg/kg compound (Hbb th3/+ mice; 60 mg/kg): 69%
- Decreased in ROS in bone marrow erythrocytes (Hbb th3/+ mice; first value of the pair (20 mg/kg; dose not printed in this line)): 13%
- Decreased in ROS in bone marrow erythrocytes (Hbb th3/+ mice; second value of the pair (60 mg/kg; dose not printed in this line)): 65%
- Serum Iron Reduction (%) ([1]; female ♀, 20 mg/kg oral, blood collection time not marked): 27%
- Serum Iron Reduction (%) ([1]; female ♀, 60 mg/kg oral, blood collection time not marked): 57** %
- Serum Iron Reduction (%) ([1]; male ♂, 20 mg/kg oral, blood collection time not marked): 29%
- Serum Iron Reduction (%) ([1]; male ♂, 60 mg/kg oral, blood collection time not marked): 66** %
- Total Liver Iron Reduction (%) ([2]; female ♀, 20 mg/kg p.o. b.i.d.): 26%
- Total Spleen Iron Increase (%) ([2]; female ♀, 20 mg/kg p.o. b.i.d.): 13%
- ^58Fe Liver Iron Reduction (%) ([2]; female ♀, 20 mg/kg p.o. b.i.d.): 60** %
- Total Liver Iron Reduction (%) ([2]; female ♀, 60 mg/kg p.o. b.i.d.): 45%
- Total Spleen Iron Increase (%) ([2]; female ♀, 60 mg/kg p.o. b.i.d.): 1%
- ^58Fe Liver Iron Reduction (%) ([2]; female ♀, 60 mg/kg p.o. b.i.d.): 77*** %
- Total Liver Iron Reduction (%) ([2]; male ♂, 20 mg/kg p.o. b.i.d.): 10%
- Total Spleen Iron Increase (%) ([2]; male ♂, 20 mg/kg p.o. b.i.d.): 18%
- ^58Fe Liver Iron Reduction (%) ([2]; male ♂, 20 mg/kg p.o. b.i.d.): 24%
- Total Liver Iron Reduction (%) ([2]; male ♂, 60 mg/kg p.o. b.i.d.): 28%
- Total Spleen Iron Increase (%) ([2]; male ♂, 60 mg/kg p.o. b.i.d.): −20%
- ^58Fe Liver Iron Reduction (%) ([2]; male ♂, 60 mg/kg p.o. b.i.d.): 70%

SMILES: O=C(NCc1ncccc1F)c1csc(CCNCc2nc3ccccc3[nH]2)n1 [Example Compound No. 40]
- Decrease in ^58Fe spleen iron content by 20/60 mg/kg compound (Hbb th3/+ mice; [3]): 19%
- Decrease in blood reticulocyte counts by 20/60 mg/kg compound (Hbb th3/+ mice; [3]): 19%
- Decrease in leukocyte counts by 20/60 mg/kg compound (Hbb th3/+ mice; [3]): 0%
- Increase in blood erythrocyte counts by 20/60 mg/kg compound (Hbb th3/+ mice; [3]): 2%
- Increase in hematocrit by 20/60 mg/kg compound (Hbb th3/+ mice; [3]): 0%
- Prevention of liver ^58Fe loading by 20/60 mg/kg (Hbb th3/+ mice; [3]): 20%
- Correction of anemia at day 20-48 by 20/60 mg/kg (Hbb th3/+ mice; 20 mg/kg twice daily): 6 g/L
- Decrease in serum iron by 20/60 mg/kg compound (Hbb th3/+ mice; 20 mg/kg): 28%
- Decrease in ^58Fe spleen iron content by 20/60 mg/kg compound (Hbb th3/+ mice; [4]): 51%
- Decrease in blood reticulocyte counts by 20/60 mg/kg compound (Hbb th3/+ mice; [4]): 43%
- Increase in blood erythrocyte counts by 20/60 mg/kg compound (Hbb th3/+ mice; [4]): 22%
- Increase in hematocrit by 20/60 mg/kg compound (Hbb th3/+ mice; [4]): 1%
- Prevention of liver ^58Fe loading by 20/60 mg/kg (Hbb th3/+ mice; [4]): 48%
- Correction of anemia at day 20-48 by 20/60 mg/kg (Hbb th3/+ mice; 60 mg/kg twice daily): 13 g/L
- Decrease in serum iron by 20/60 mg/kg compound (Hbb th3/+ mice; 60 mg/kg): 58%
- Correction of elevated serum iron, in words ([1]; b2m−/− mice, 50 mg/kg p.o., 3 h): corrected the elevated serum iron to the levels observed in WT controls
- Serum Iron Reduction (%) ([1]; female ♀, 20 mg/kg oral, 1 hour (#)): 0%
- Serum Iron Reduction (%) ([1]; female ♀, 60 mg/kg oral, 1 hour (#), 60 mg/kg): 13% and 10%
- Serum Iron Reduction (%) ([1]; male ♂, 20 mg/kg oral, 1 hour (#)): 35** %
- Serum Iron Reduction (%) ([1]; male ♂, 60 mg/kg oral, 1 hour (#), 60 mg/kg): 32** % and 58** %
- Total Liver Iron Reduction (%) ([2]; female ♀, 20 mg/kg p.o. b.i.d.): 32%
- Total Spleen Iron Increase (%) ([2]; female ♀, 20 mg/kg p.o. b.i.d.): 50* %
- ^58Fe Liver Iron Reduction (%) ([2]; female ♀, 20 mg/kg p.o. b.i.d.): 44%
- Total Liver Iron Reduction (%) ([2]; male ♂, 20 mg/kg p.o. b.i.d.): 31%
- ^58Fe Liver Iron Reduction (%) ([2]; male ♂, 20 mg/kg p.o. b.i.d.): 53* %
